Results taken from PubChem BioAssay (NCI).
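Test compounds were applied to cells in 96-well plates for 48 hours at 5 doses. TGI is the concentration that stops growth completely.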

Columns and labels:
Experiment in all cases: growth of human tumour cells (NCI), 48 h
[1] = test system: 786-0 renal
[2] = test system: A498 renal
[3] = test system: A549 NSCLC
[4] = test system: ACHN renal
[5] = test system: CAKI-1 renal
[6] = test system: CCRF-CEM leukemia
[7] = test system: COLO 205 colon
[8] = test system: DLD-1 colon
[9] = test system: DMS 114 small cell lung
[10] = test system: DMS 273 small cell lung
[11] = test system: EKVX NSCLC
[12] = test system: HCC-2998 colon
[13] = test system: HCT-116 colon
[14] = test system: HL-60(TB) leukemia
[15] = test system: HOP-62 NSCLC
[16] = test system: HOP-92 NSCLC
[17] = test system: HT29 colon
[18] = test system: IGROV1 ovarian
[19] = test system: K-562 leukemia
[20] = test system: KM12 colon
[21] = test system: KM20L2 colon
[22] = test system: LOX IMVI melanoma
[23] = test system: LXFL 529 NSCLC
[24] = test system: M14 melanoma
[25] = test system: M19-MEL melanoma
[26] = test system: MALME-3M melanoma
[27] = test system: MOLT-4 leukemia
[28] = test system: NCI-H226 lung
[29] = test system: NCI-H23 lung
[30] = test system: NCI-H460 lung
[31] = test system: NCI-H522 lung
[32] = test system: OVCAR-3 ovarian
[33] = test system: OVCAR-5 ovarian
[34] = test system: OVCAR-8 ovarian
[35] = test system: RPMI-8226 leukemia
[36] = test system: RXF 393 renal
[37] = test system: SF-268 CNS
[38] = test system: SF-295 CNS
[39] = test system: SF-539 CNS
[40] = test system: SK-MEL-2 melanoma
[41] = test system: SK-MEL-28 melanoma
[42] = test system: SK-MEL-5 melanoma
[43] = test system: SK-OV-3 ovarian
[44] = test system: SN12C renal
[45] = test system: SNB-19 CNS
[46] = test system: SNB-75 CNS
[47] = test system: SNB-78 CNS
[48] = test system: SR leukemia
[49] = test system: SW-620 colon
[50] = test system: TK-10 renal
[51] = test system: U251 CNS
[52] = test system: UACC-257 melanoma
[53] = test system: UACC-62 melanoma
[54] = test system: UO-31 renal
[55] = test system: BT-549 breast
[56] = test system: DU-145 prostate
[57] = test system: HCT-15 colon
[58] = test system: HS 578T breast
[59] = test system: MCF7 breast
[60] = test system: MDA-MB-231 breast
[61] = test system: MDA-MB-435
[62] = test system: MDA-N
[63] = test system: NCI/ADR-RES ovarian
[64] = test system: OVCAR-4 ovarian
[65] = test system: PC-3 prostate
[66] = test system: T-47D breast
[67] = test system: HOP-18 NSCLC

Measured: TGI

CC1=CP(=O)(OC(C)C)CC(C)=C1Cl (configuration not stated)
not listed: [55] | [56] | [57] | [58] | [59] | [60] | [61] | [62] | [63] | [64] | [65] | [66] | [67]
> 100 µM: all other assays above

COC12COC(=O)C1C(c1ccc3c(c1)OCO3)c1cc3c(cc1O2)OCO3 (configuration not stated)
> 91.8 µM: [2]
53.1 µM: [12]
> 75.8 µM: [43]
> 52.3 µM: [14]
> 74.1 µM: [63]
11.7 µM: [62]
> 97.4 µM: [11]
43.8 µM: [39]
40.2 µM: [19]
> 91.5 µM: [54]
> 96.8 µM: [1]
> 83.8 µM: [40]
> 93.5 µM: [56]
9.13 µM: [61]
> 84.2 µM: [6]
> 96.4 µM: [52]
> 77.3 µM: [58]
39.7 µM: [31]
59.2 µM: [46]
> 87.9 µM: [27] | [35]
97.6 µM: [15]
> 91 µM: [17]
> 93.8 µM: [7]
44.8 µM: [36]
not listed: [8] | [9] | [10] | [21] | [23] | [25] | [47] | [67]
> 100 µM: all other assays above

COc1ccc(-c2nnc(-c3nsc4ccccc34)o2)cc1
92.6 µM: [32]
71.4 µM: [35]
93.9 µM: [36]
83.4 µM: [46]
not listed: [1] | [2] | [5] | [6] | [8] | [14] | [19] | [26] | [27] | [28] | [31] | [38] | [43] | [55] | [56] | [58] | [59] | [60] | [61] | [62] | [63] | [65] | [66]
> 100 µM: all other assays above
